Biological target: T1, serotonergic 5-HT1A receptors (Rattus norvegicus, UniProt P19327)
T1 construct: from tissue; host or cells: cerebral cortex membranes of male Sprague Dawley rats
T1 sequence (P19327 1-422): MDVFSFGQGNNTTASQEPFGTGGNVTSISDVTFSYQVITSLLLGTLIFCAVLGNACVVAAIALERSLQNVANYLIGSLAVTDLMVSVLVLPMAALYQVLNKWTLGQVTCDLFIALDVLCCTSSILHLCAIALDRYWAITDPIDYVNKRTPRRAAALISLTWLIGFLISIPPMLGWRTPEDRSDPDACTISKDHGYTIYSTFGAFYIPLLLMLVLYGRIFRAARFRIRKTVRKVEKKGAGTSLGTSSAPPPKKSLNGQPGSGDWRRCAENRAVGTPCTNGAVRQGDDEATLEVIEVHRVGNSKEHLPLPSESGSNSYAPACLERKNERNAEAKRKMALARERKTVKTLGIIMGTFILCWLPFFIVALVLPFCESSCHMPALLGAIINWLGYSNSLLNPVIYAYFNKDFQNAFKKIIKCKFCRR
Test: Affinity for the 5-HT1A receptor: inhibition of [3H]8-OH-DPAT binding to rat cerebral cortex membranes
Set-up: species or system rat (male Sprague Dawley)
Settings: [3H]8-OH-DPAT 1 nM, 30 min at 25° C., Tris-HCl 50 mM, pH=7.4
Method: The affinity of the compounds for serotonergic 5-HT1A receptors is determined by measuring the inhibition of [3H]8-hydroxy-2(di-n-propylamino)tetralin([3H]8-OH-DPAT) bound to the cerebral cortex of the rat, according to the method of Peroutka and his coworkers [(J. Neurochem., 47, 529 (1986)].
Cerebral cortices of male Sprague Dawley rats are homogenised in Tris-HCl 50 mM, pH=7.4 and centrifuged at 40,000 g for 10 min at 4° C. Pellets are resuspended in the same buffer and incubated for 10 min at 37° C., and the homogenised products are centrifuged again at 40,000 g for 10 min at 4° C.
Competitive inhibition tests of [3H]8-OH-DPAT binding are carried out three times with unlabelled competitors, with concentrations between 100 pM and 100 µM. Cerebral cortex membranes of rats (10 mg wet weight/ml) are incubated with [3H]8-OH-DPAT (1 nM) for 30 min at 25° C. in Tris-HCl 50 mM, pH=7.4 containing 4 mM of CaCl2, 10 µM of pargyline and 0.1% of ascorbic acid.
The bound [3H]8-OH-DPAT is separated from free [3H]8-OH-DPAT by immediate filtration by means of Whatman GF/B glass fibre filters using a Brandel cell recovery device. The filters are washed three times with the same buffer at 0-4° C. and their radioactivity is studied by means of a liquid scintillation spectrometer.
The specific binding is obtained by subtracting the binding determined in the presence of 1 M of 8-OH-DPAT from the total binding. The characteristics of the binding are analysed by iterative analysis of the non-linear regression by computer, using the Ligand program [Munson and Rodbard, Anal. Biochem., 107, 220 (1980)].

Ki	SMILES
81 pM	CC(C)(C)C(=O)NCCCCNCCOc1cccc2cccnc12 [Compound 1, N-[4-({2-(8-quinolyloxy)ethyl}amino)butyl]tert-butanamide]
55 pM	O=C(NCCCCNCCOc1cccc2cccnc12)c1ccccc1 [Compound 5, N-[4-({2-(8-quinolyloxy)ethyl}amino)butyl]benzamide]
350 pM	Cc1ccc2cccc(OCCNCCCCNC(=O)CC(C)(C)C)c2n1 [Compound 7]
980 pM	CC(C)(C)CC(=O)NCCCCNCCOc1ccc(Cl)c2cccnc12 [Compound 6]
150 pM	O=C(NCCCCNCCOc1cccc2cccnc12)C1CCCCC1 [Compound 3, N-[4-({2-(8-quinolyloxy)ethyl}amino)butyl]cyclohexanamide]
110 pM	CC1(C(=O)NCCCCNCCOc2cccc3cccnc23)CCCCC1 [Compound 4]
480 pM	CC(C)(C)CNC(=O)CCCCNCCOc1cccc2nccnc12 [Compound 13, N-neopentyl-5-[(2-{5-quinoxalyloxy}ethyl)amino]pentanamide]
120 pM	CC(C)(C)CC(=O)NCCCCNCCOc1cccc2cccnc12 [Compound 2]
72 pM	O=C(CCCCNCCOc1cccc2cccnc12)NC1CCCCC1 [Compound 11, N-cyclohexyl-5-[(2-{8-quinolyloxy}ethyl)amino]pentanamide]
90 pM	CC(C)(C)CNC(=O)CCCCNCCOc1cccc2cccnc12 [Compound 12, N-neopentyl-5-[(2-{8-quinolyloxy}ethyl)amino]pentanamide]
750 pM	O=C(NCCCCNCCOc1cccc2nccnc12)c1ccccc1 [Compound 9, N-[4-({2-(5-quinoxalyloxy)ethyl}amino)butyl]benzamide]
